Results published in patent publication US20140094424A1, “MICROBICIDAL COMPOSITIONS AND METHODS OF PRODUCTION USE THEREOF” (priority 2011, published 2014).

Tested on: Penicillium notatum-KMO (R)
Test: MBC (minimum bactericidal concentration) test in Wash NEXT reagent
Type: cell-based
Conditions: for total kill at % preservative (MBC): at 14 days
Description: The stock organisms were thawed and subbed prior to beginning the MBC test. Molds were subbed to SDA plates one week before, and the bacteria were subbed to TAT agar plates 24 hours prior to the start of the test. All plates were incubated at 32 degrees C.
For the molds, each organism was inoculated into 40 ml sterile saline in a centrifuge tube to create a density of MacFarland #5. Two serial dilutions of 1:100 were then made, resulting in 10^−2 and 10^−4 concentrations. Each dilution was vortexed before it was sampled, and sterile Eppendorf pipette tips were used to make each transfer. The 10^−4 dilution was spiral plated to yield the initial inoculum concentration.
MBC trays were set up with the prepared test reagent. Using a Matrix pipettor, 100 μl aliquots of reagent were distributed into the wells, diluting the amount of preservative from 100% to 10% increments, using unpreserved reagent as the diluent. In one row, 100% non-preserved reagent acted as a positive control and served as a benchmark for a full mat of growth. In well #12H, 100 μl unpreserved reagent was pipetted, and this well was not inoculated with organisms, as it served as the negative control. Once all of the trays were prepared, the prepared bacteria/mold suspensions were poured into the MBC inoculating trays. These were placed onto the reagent trays, and 0.01 ml inoculum was introduced into the 100 μl of reagent in each well.
This was done by dipping a sterile cotton swab into each well, and absorbing all of the liquid in the well. The swab was rolled onto a TAT agar plate ensuring that the entire swab touches the agar. Plates ware incubated at 32 degrees C. for 48 hours to 7 days, depending on the organism. Observations for growth were performed by a scoring matrix using + for a full mat, +/− for some growth, a numerical value for an actual colony count, and—for no growth.
Below are tables that contain the data obtained in Example 1. The MBC test is scored by (+) indicating a full grown mat of organisms, equivalent to the organisms in the unpreserved reagent. (+/−) indicates there is some kill evident disturbing that mat or bringing the quantities down to an almost countable level. An actual number is the actual number of colonies growing at that concentration of preservative. (−) indicates no growth found. The MBC trays were stored at room temperature for the entire test.
The materials and methods and analysis of the MBC test were the same as in Example 1.

SMILES: [N-]=[N+]=[N-] [Sodium Azide, sodium azide]
- growth (10%, 8 hour): +
- growth (10%, 24 hour): +
- growth (10%, 48 hour): +/−
- growth (number of organisms counted) (10%, 72 hour): 24
- growth (number of organisms counted) (10%, 7 day): 20
- growth (number of organisms counted) (10%, 14 day): 14
- growth (20%, 8 hour): +
- growth (20%, 24 hour): +
- growth (20%, 48 hour): +/−
- growth (number of organisms counted) (20%, 72 hour): 22
- growth (number of organisms counted) (20%, 7 day): 19
- growth (number of organisms counted) (20%, 14 day): 11
- growth (30%, 8 hour): +
- growth (30%, 24 hour): +
- growth (30%, 48 hour): +/−
- growth (number of organisms counted) (30%, 72 hour): 22
- growth (number of organisms counted) (30%, 7 day): 19
- growth (number of organisms counted) (30%, 14 day): 8
- growth (40%, 8 hour): +
- growth (40%, 24 hour): +
- growth (40%, 48 hour): +/−
- growth (number of organisms counted) (40%, 72 hour): 18
- growth (number of organisms counted) (40%, 7 day): 15
- growth (number of organisms counted) (40%, 14 day): 6
- growth (50%, 8 hour): +
- growth (50%, 24 hour): +
- growth (50%, 48 hour): +/−
- growth (number of organisms counted) (50%, 72 hour): 15
- growth (number of organisms counted) (50%, 7 day): 12
- growth (50%, 14 day): −
- growth (60%, 8 hour): +
- growth (60%, 24 hour): +
- growth (60%, 48 hour): +/−
- growth (number of organisms counted) (60%, 72 hour): 13
- growth (number of organisms counted) (60%, 7 day): 10
- growth (60%, 14 day): −
- growth (70%, 8 hour): +
- growth (70%, 24 hour): +
- growth (70%, 48 hour): +/−
- growth (number of organisms counted) (70%, 72 hour): 11
- growth (number of organisms counted) (70%, 7 day): 9
- growth (70%, 14 day): −
- growth (80%, 8 hour): +
- growth (80%, 24 hour): +
- growth (80%, 48 hour): +/−
- growth (number of organisms counted) (80%, 72 hour): 9
- growth (number of organisms counted) (80%, 7 day): 6
- growth (80%, 14 day): −
- growth (90%, 8 hour): +
- growth (90%, 24 hour): +
- growth (90%, 48 hour): +/−
- growth (number of organisms counted) (90%, 72 hour): 7
- growth (number of organisms counted) (90%, 7 day): 4
- growth (90%, 14 day): −
- growth (100%, 8 hour): +
- growth (100%, 24 hour): +
- growth (100%, 48 hour): +/−
- growth (number of organisms counted) (100%, 72 hour): 6
- growth (number of organisms counted) (100%, 7 day): 3
- growth (100%, 14 day): −
- total kill at % preservative (MBC): had total kill at 50% preservative at 14
- total kill at % preservative (MBC) (listed as Na Azide): Total kill @ 50%
